# From US20050142065A1, “Screening method” (priority 2002, published 2005)
# Where a name gives a salt, the structure may show the parent alone.
# Tests used:
# [1] = test system: Wistar fatty rats; experiment: Glycated hemoglobin value in Wistar fatty rats given the compound in powder diet; format: in vivo, rat; details: for decrease in the glycated hemoglobin value, corrected for control group: minus decrease in control a group; for decrease in glycated hemoglobin value (before minus after administration): male Wistar fatty rats
# Method: In this Experimental Example, the blood of the rats were taken in a microtube finally containing 0.01M EDTA as an anticoagulant agent, for the measurement of blood glucose level and glycated hemoglobin value. The glycated hemoglobin value was measured by high performance liquid chromatograph (HLC-723GhbVA1c2.2 (product name, manufactured by Tosoh Corporation)) using an aminophenyl boronate affinity column and an absorbance (415 nm) detection method. For the mobile phase, eluents A, B (manufactured by Tosoh Corporation) were used, and the conditions set for chromatography, such as column temperature, flow rate and the like, followed the standard conditions set for this chromatography. […] The glycated hemoglobin value was measured at 4 and 5 weeks after the start of the experiment.
# [2] = test system: Diabetes mellitus patients; experiment: Hemoglobin A1c value in diabetes mellitus patients after oral administration; format: in vivo, human; details: 30 mg daily dose
# Method: Diabetes mellitus patients (134 patients, age 57.6±11.5 years old, fasting blood glucose level 183.2±35.2 mg/dl, hemoglobin A1c value 9.27±1.60%) were divided into 2 groups.
compound,measurement,setting,value
CCc1ccc(CCOc2ccc(CC3SC(=O)NC3=O)cc2)nc1 (centres unmarked) [pioglitazone hydrochloride],"decrease in the glycated hemoglobin value, corrected for control group","[1]; b group, 0.8 mg/kg body weight daily in diet, 4 weeks",1.1%
same,"decrease in the glycated hemoglobin value, corrected for control group","[1]; b group, 0.8 mg/kg body weight daily in diet, 5 weeks",1.3%
same,decrease in glycated hemoglobin value (before minus after administration),"[1]; b group, 0.8 mg/kg body weight daily in diet, 4 weeks after start of administration",1.4%
same,decrease in glycated hemoglobin value (before minus after administration),"[1]; b group, 0.8 mg/kg body weight daily in diet, 5 weeks after start of administration",1.9%
same,"decrease in the glycated hemoglobin value, corrected for control group","[1]; c group, 2.4 mg/kg body weight daily in diet, 4 weeks",2.5%
same,"decrease in the glycated hemoglobin value, corrected for control group","[1]; c group, 2.4 mg/kg body weight daily in diet, 5 weeks",2.7%
same,decrease in glycated hemoglobin value (before minus after administration),"[1]; c group, 2.4 mg/kg body weight daily in diet, 4 weeks after start of administration",2.8%
same,decrease in glycated hemoglobin value (before minus after administration),"[1]; c group, 2.4 mg/kg body weight daily in diet, 5 weeks after start of administration",3.3%
same,decrease in the hemoglobin A1c value,[2]; 8 weeks after start of administration,0.70%
same,"decrease in hemoglobin A1c value, corrected for placebo group","[2]; 8 weeks, minus decrease in placebo group",0.68%
same,decrease in the hemoglobin A1c value,[2]; 12 weeks after start of administration,1.08%
